Experimental data: patent publication US11884661B2, “3-substituted propionic acids as αV integrin inhibitors” (BRISTOL-MYERS SQUIBB COMPANY, priority 2016, dated 2024)

biological target: T1, human αVβ6 (Homo sapiens, UniProt P06756+P18564); assay: human αVβ6 HTRF binding assay; details: recombinant human αVβ6 integrin, FITC-conjugated fibronectin
T1 construct: purchased R & D systems 3817-AV
Procedure, shortened: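 Biotinylated recombinant αVβ6 (1.25 nM final) incubated with FITC-fibronectin (5 nM) 1 h at RT, then streptavidin-terbium (0.625 nM) added and incubated overnight at RT in the dark before HTRF read. Buffer: 20 mM Tris pH 7.4, 1 mM MgCl2, 1 mM MnCl2, 0.01% Tween 20, 0.01% BSA.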

T1 sequence (P06756 31-992 limits assumed): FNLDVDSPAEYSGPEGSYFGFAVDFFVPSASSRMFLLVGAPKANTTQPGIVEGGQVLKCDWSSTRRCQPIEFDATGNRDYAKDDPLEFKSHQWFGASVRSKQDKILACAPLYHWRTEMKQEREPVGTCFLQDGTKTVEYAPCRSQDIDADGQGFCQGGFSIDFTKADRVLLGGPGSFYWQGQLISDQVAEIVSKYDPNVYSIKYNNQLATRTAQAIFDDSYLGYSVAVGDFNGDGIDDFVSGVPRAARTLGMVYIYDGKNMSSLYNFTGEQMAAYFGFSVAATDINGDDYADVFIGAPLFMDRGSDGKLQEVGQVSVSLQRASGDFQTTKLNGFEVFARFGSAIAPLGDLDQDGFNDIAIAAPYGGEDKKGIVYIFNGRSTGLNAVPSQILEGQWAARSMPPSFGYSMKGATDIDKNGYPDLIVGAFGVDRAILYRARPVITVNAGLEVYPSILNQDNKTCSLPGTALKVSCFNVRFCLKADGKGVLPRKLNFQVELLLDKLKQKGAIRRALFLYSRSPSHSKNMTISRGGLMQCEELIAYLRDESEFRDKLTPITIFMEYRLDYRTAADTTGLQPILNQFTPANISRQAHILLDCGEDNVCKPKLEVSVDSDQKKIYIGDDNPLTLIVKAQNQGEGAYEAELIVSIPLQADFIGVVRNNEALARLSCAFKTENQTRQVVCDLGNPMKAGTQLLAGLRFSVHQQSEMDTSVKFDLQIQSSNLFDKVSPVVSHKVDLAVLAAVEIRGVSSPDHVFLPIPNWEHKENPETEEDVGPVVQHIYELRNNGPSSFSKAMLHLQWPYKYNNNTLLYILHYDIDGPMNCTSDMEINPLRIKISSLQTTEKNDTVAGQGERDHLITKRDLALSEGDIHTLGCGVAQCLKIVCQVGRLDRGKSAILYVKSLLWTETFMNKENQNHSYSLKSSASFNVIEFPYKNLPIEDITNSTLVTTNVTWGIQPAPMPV
T1 sequence (P18564 22-707 limits assumed): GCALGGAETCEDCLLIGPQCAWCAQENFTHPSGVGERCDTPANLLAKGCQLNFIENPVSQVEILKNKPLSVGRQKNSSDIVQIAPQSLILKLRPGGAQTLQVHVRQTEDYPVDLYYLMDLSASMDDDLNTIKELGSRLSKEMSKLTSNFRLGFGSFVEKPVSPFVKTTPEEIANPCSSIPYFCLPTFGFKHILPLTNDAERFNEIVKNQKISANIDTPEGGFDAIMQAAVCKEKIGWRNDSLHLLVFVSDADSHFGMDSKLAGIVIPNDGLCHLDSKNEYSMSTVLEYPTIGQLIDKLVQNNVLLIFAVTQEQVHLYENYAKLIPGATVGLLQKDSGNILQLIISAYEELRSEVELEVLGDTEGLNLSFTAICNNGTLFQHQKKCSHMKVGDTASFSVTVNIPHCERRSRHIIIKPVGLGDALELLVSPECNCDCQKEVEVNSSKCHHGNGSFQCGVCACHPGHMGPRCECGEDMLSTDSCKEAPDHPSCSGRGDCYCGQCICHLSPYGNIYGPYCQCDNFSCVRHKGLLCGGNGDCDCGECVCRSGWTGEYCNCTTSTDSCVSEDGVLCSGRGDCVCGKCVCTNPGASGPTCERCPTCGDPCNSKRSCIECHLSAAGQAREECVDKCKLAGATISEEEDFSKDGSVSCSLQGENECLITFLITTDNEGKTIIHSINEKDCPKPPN

| IC50 | Structure (SMILES) |
| --- | --- |
| 27 nM | COc1ccc(C(CC(=O)O)n2ncc(CCCc3ccc4c(n3)NCCC4)n2)cn1 (single isomer, unassigned) [Example 171, 3-(6-methoxypyridin-3-yl)-3-(4-(3-(5,6,7,8-tetrahydro-1,8-naphthyridin-2-yl)propyl)-2H-1,2,3-triazol-2-yl)propanoic acid] |
| 7.2 nM | Cc1ncc(C(CC(=O)O)c2nc(CCCc3ccc4c(n3)NCCC4)cs2)cn1 (single isomer, unassigned) [Example 149, 3-(2-methylpyrimidin-5-yl)-3-(4-(3-(5,6,7,8-tetrahydro-1,8-naphthyridin-2-yl)propyl)thiazol-2-yl)propanoic acid] |
| 4.9 nM | O=C(O)C[C@@H](c1cnc2c(c1)OCCO2)n1ccc(CCCc2ccc3c(n2)NCCC3)n1 [Example 51, (S)-3-(2,3-Dihydro-[1,4]dioxino[2,3-b]pyridin-7-yl)-3-(3-(3-(5,6,7,8-tetrahydro-1,8-naphthyridin-2-yl)propyl)-1H-pyrazol-1-yl)propanoic acid] |
| 55 nM | O=C(O)CCCNc1cc(C(CC(=O)O)n2ccc(CCCc3ccc4c(n3)NCCC4)n2)ccn1 (racemic) [Example 76, (±)-4-{[4-(2-carboxy-1-{3-[3-(5,6,7,8-tetrahydro-1,8-naphthyridin-2-yl)propyl]-1H-pyrazol-1-yl}ethyl)pyridin-2-yl]amino}butanoic acid] |
| 180 nM | O=C(O)CC(c1cccc(N2CCOCC2)c1)c1nc(CCCCc2ccc3c(n2)NCCC3)cs1 (single isomer, unassigned) [Example 125, 3-(3-morpholinophenyl)-3-(4-(4-(5,6,7,8-tetrahydro-1,8-naphthyridin-2-yl)butyl)thiazol-2-yl)propanoic acid] |
| 180 nM | COc1ccc(C(CC(=O)O)c2nc(CCCCc3ccc4c(n3)NCCC4)cs2)cc1OC (single isomer, unassigned) [Example 123, 3-(3,4-dimethoxyphenyl)-3-(4-(4-(5,6,7,8-tetrahydro-1,8-naphthyridin-2-yl)butyl)thiazol-2-yl)propanoic acid] |
| 210 nM | CN(C)C(=O)c1ccc(C(CC(=O)O)c2nc(CCCc3ccc4c(n3)NCCC4)cs2)cc1 (single isomer, unassigned) [Example 137, 3-(4-(dimethylcarbamoyl)phenyl)-3-(4-(3-(5,6,7,8-tetrahydro-1,8-naphthyridin-2-yl)propyl)thiazol-2-yl)propanoic acid] |
| 220 nM | COc1ncc([C@H](CC(=O)O)n2ccc(CCC[C@@H]3CCc4cccnc4N3)n2)cn1 [Example 90, (S)-3-(2-methoxypyrimidin-5-yl)-3-(3-(3-((R)-1,2,3,4-tetrahydro-1,8-naphthyridin-2-yl)propyl)-1H-pyrazol-1-yl)propanoic acid] |
| 500 nM | COc1cnc(C(CC(=O)O)n2nccc2CCCc2ccc3c(n2)NCCC3)cn1 (racemic) [Example 60, (±)-3-(5-Methoxypyrazin-2-yl)-3-(5-(3-(5,6,7,8-tetrahydro-1,8-naphthyridin-2-yl)propyl)-1H-pyrazol-1-yl)propanoic acid] |
| 6.7 nM | COc1ccc(C(CC(=O)O)c2ncc(CCCCc3ccc4c(n3)NCCC4)s2)cn1 (single isomer, unassigned) [Example 18, 3-(6-Methoxypyridin-3-yl)-3-(5-(4-(5,6,7,8-tetrahydro-1,8-naphthyridin-2-yl)butyl)thiazol-2-yl)propanoic acid] |
| 19 nM | O=C(O)CC(c1cncc(N2CCOCC2)c1)n1nccc1CCCc1ccc2c(n1)NCCC2 (single isomer, unassigned) [Example 94, 3-(5-morpholinopyridin-3-yl)-3-(5-(3-(5,6,7,8-tetrahydro-1,8-naphthyridin-2-yl)propyl)-1H-pyrazol-1-yl)propanoic acid] |
| 315 nM | COc1ncc(C(CC(=O)O)n2ncc(CCCc3ccc4c(n3)NCCC4)n2)cn1 (single isomer, unassigned) [Example 177, 3-(2-methoxypyrimidin-5-yl)-3-(4-(3-(5,6,7,8-tetrahydro-1,8-naphthyridin-2-yl)propyl)-2H-1,2,3-triazol-2-yl)propanoic acid] |
| 17 nM | Cc1ncc(C(CC(=O)O)n2ccc(CCCc3ccc4c(n3)NCCCC4)n2)cn1 (racemic) [Example 96, (±)-3-(2-methylpyrimidin-5-yl)-3-(3-(3-(6,7,8,9-tetrahydro-5H-pyrido[2,3-b]azepin-2-yl)propyl)-1H-pyrazol-1-yl)propanoic acid] |
| 2.6 nM | Cc1cncc(C(CC(=O)O)c2nc(CCCc3ccc4c(n3)NCCC4)cs2)c1 (single isomer, unassigned) [Example 151, 3-(5-methylpyridin-3-yl)-3-(4-(3-(5,6,7,8-tetrahydro-1,8-naphthyridin-2-yl)propyl)thiazol-2-yl)propanoic acid] |
| 1400 nM | Cc1ncc(C(CC(=O)O)n2nccc2CCC[C@@H]2CCc3cccnc3N2)cn1 (mixture of isomers) [Example 91, 3-(2-methylpyrimidin-5-yl)-3-(5-(3-((R)-1,2,3,4-tetrahydro-1,8-naphthyridin-2-yl)propyl)-1H-pyrazol-1-yl)propanoic acid] |
| 2100 nM | COc1ccc(C(CC(=O)O)n2nccc2CCCc2ccc3c(n2)NCCC3)nn1 (racemic) [Example 58, (±)-3-(6-Methoxypyridazin-3-yl)-3-(5-(3-(5,6,7,8-tetrahydro-1,8-naphthyridin-2-yl)propyl)-1H-pyrazol-1-yl)propanoic acid] |
| 4.3 nM | CN(C)C(=O)c1ccc(C(CC(=O)O)c2nc(CCCCc3ccc4c(n3)NCCC4)cs2)cc1 (single isomer, unassigned) [Example 128, 3-(4-(dimethylcarbamoyl)phenyl)-3-(4-(4-(5,6,7,8-tetrahydro-1,8-naphthyridin-2-yl)butyl)thiazol-2-yl)propanoic acid] |
| 7 nM | COc1ncc(C(CC(=O)O)c2nc(CCCCc3ccc4c(n3)NCCC4)cs2)cn1 (single isomer, unassigned) [Example 144, 3-(2-Methoxypyrimidin-5-yl)-3-(4-(4-(5,6,7,8-tetrahydro-1,8-naphthyridin-2-yl)butyl)thiazol-2-yl)propanoic acid] |
| 51 nM | COc1ccc(C(CC(=O)O)n2ccc(CCCc3ccc4c(n3)NCCC4)n2)nn1 (racemic) [Example 57, (±)-3-(6-Methoxypyridazin-3-yl)-3-(3-(3-(5,6,7,8-tetrahydro-1,8-naphthyridin-2-yl)propyl)-1H-pyrazol-1-yl)propanoic acid] |
| 1.8 nM | CN(C)c1ccc(C(CC(=O)O)c2nc(CCCc3ccc4c(n3)NCCC4)cs2)cn1 (single isomer, unassigned) [Example 134, 3-(6-(dimethylamino)pyridin-3-yl)-3-(4-(3-(5,6,7,8-tetrahydro-1,8-naphthyridin-2-yl)propyl)thiazol-2-yl)propanoic acid] |
| 2.3 nM | CN(C)C(=O)c1ccc(C(CC(=O)O)c2nc(CCCCc3ccc4c(n3)NCCC4)cs2)cc1F (single isomer, unassigned) [Example 131, 3-(4-(dimethylcarbamoyl)-3-fluorophenyl)-3-(4-(4-(5,6,7,8-tetrahydro-1,8-naphthyridin-2-yl)butyl)thiazol-2-yl)propanoic acid] |
| 56 nM | COc1ccc(C(CC(=O)O)n2cc(CCCCc3ccc4c(n3)NCCC4)cn2)cn1 (racemic) [Example 61, (±)-3-(6-Methoxypyridin-3-yl)-3-(4-(4-(5,6,7,8-tetrahydro-1,8-naphthyridin-2-yl)butyl)-1H-pyrazol-1-yl)propanoic acid] |
| 25 nM | COc1cc(C(CC(=O)O)n2nccc2CCCc2ccc3c(n2)NCCC3)ccn1 (racemic) [Example 73, (±)-3-(2-methoxypyridin-4-yl)-3-{5-[3-(5,6,7,8-tetrahydro-1,8-naphthyridin-2-yl)propyl]-1H-pyrazol-1-yl}propanoic acid] |
| 213 nM | COc1ccc([C@@H](CC(=O)O)c2cnn(CCCc3ccc4c(n3)NCCC4)c2)cn1 [Example 9, (R)-3-(6-Methoxypyridin-3-yl)-3-(1-(3-(5,6,7,8-tetrahydro-1,8-naphthyridin-2-yl)propyl)-1H-pyrazol-4-yl)propanoic acid] |
| 15 nM | Cc1cncc(C(CC(=O)O)n2ccc(CCCc3ccc4c(n3)NCCC4)n2)c1 (single isomer, unassigned) [Example 69, 3-(5-methylpyridin-3-yl)-3-{3-[3-(5,6,7,8-tetrahydro-1,8-naphthyridin-2-yl)propyl]-1H-pyrazol-1-yl}propanoic acid] |
| 13 nM | CN(C)C(=O)c1cncc(C(CC(=O)O)n2ccc(CCCc3ccc4c(n3)NCCC4)n2)c1 (racemic) [Example 74, (±)-3-[5-(dimethylcarbamoyl)pyridin-3-yl]-3-{3-[3-(5,6,7,8-tetrahydro-1,8-naphthyridin-2-yl)propyl]-1H-pyrazol-1-yl}propanoic acid] |
| 5.9 nM | COc1ccc(C(CC(=O)O)c2ncc(CCCCc3ccc4c(n3)NCCC4)s2)cc1F (single isomer, unassigned) [Example 41, (3-Fluoro-4-methoxyphenyl)-3-(5-(4-(5,6,7,8-tetrahydro-1,8-naphthyridin-2-yl)butyl)thiazol-2-yl)propanoic acid] |
| 210 nM | O=C(O)CC(c1cncc(N2CCOCC2)c1)n1ccc(CCCc2ccc3c(n2)NCCC3)n1 (single isomer, unassigned) [Example 67, 3-[5-(morpholin-4-yl)pyridin-3-yl]-3-{3-[3-(5,6,7,8-tetrahydro-1,8-naphthyridin-2-yl)propyl]-1H-pyrazol-1-yl}propanoic acid] |

| Structure (SMILES) | IC50 |
| --- | --- |
| CCCCOC(=O)NC(Cc1cnn(CCc2ccc3c(n2)NCCC3)c1)C(=O)O (racemic) [Example 23, (±)-2-((Butoxycarbonyl)amino)-3-(1-(2-(5,6,7,8-tetrahydro-1,8-naphthyridin-2-yl)ethyl)-1H-pyrazol-4-yl)propanoic acid] | 1020 nM |
